The target of this experiment is RBD of spike protein binding with ACE2 protein (Severe acute respiratory syndrome coronavirus 2, UniProt P0DTC2).

On to Bovine serum albumin [BSA], for which the “Competitive inhibition of ACE2 binding with RBD of spike” value is on record as “non-competitive binding signal”.

These data come from patent US20240409669A1, “Neutralizing Trivalent Protein-DNA Molecules (TRI-PDBODY) for SARS-COV-2 Infection Treatment” (priority 2021, published 2024).
